From patent EP3381898A1, “SYMMETRICAL TRIS-ARYL-AMIDE DERIVATIVES AND THEIR USE AS ANTI-HEPARANASE” (priority 2017, dated 2018)
Like-named read-outs stand apart in the source and are kept apart here.

Columns and labels:
[1] = tested on: U87MG (human glioblastoma astrocytoma); experiment: SRB Cell Cytotoxicity Assay (cell proliferation, 72h); assay type: cell-based; conditions: U-87 MG, 72 h, read-out: Concentration (µM) of test compounds at which the cell growth is inhibited by 50 %. U87MG
Protocol: (§1) SRB Cell Cytotoxicity Assay is an assay based upon the quantitative staining of cellular proteins by sulforhodamine B (SRB). This assay can be used for high-throughput drug screening ([…], Nature Protocol. 2006, 1, 112). Sulforhodamine B is an anionic aminoxanthene dye that forms an electrostatic complex with the basic amino acid residues of proteins under moderately acid conditions, which provides a sensitive linear response. […] Inhibition of cell proliferation was then measured by the classical colorimetric SRB Cell Cytotoxicity assay. Absorbance was measured by spectrophotometer at a wavelength of 510 nm and cell proliferation was determined as percent with respect to control cells (cells treated with the vehicle alone). EC50 values were then determined by GraphPad Prism.

[2] = tested on: U2OS (human osteosarcoma); experiment: as above; assay type: cell-based; conditions: 72 h, read-out: Concentration (µM) of test compounds at which the cell growth is inhibited by 50 %. U2OS
Protocol: as §1

[3] = tested on: HT1080 (human fibrosarcoma); experiment: as above; assay type: cell-based; conditions: HT-1080, 72 h, read-out: Concentration (µM) of test compounds at which the cell growth is inhibited by 50 %. HT1080
Protocol: as §1

heparanase = target: T1, heparanase (Homo sapiens, UniProt Q9Y251); experiment: AGA*IA assay: heparanase-catalyzed fondaparinux cleavage, colorimetric (WST-1); assay type: biochemical
T1 sequence (Q9Y251 158-543 limits assumed): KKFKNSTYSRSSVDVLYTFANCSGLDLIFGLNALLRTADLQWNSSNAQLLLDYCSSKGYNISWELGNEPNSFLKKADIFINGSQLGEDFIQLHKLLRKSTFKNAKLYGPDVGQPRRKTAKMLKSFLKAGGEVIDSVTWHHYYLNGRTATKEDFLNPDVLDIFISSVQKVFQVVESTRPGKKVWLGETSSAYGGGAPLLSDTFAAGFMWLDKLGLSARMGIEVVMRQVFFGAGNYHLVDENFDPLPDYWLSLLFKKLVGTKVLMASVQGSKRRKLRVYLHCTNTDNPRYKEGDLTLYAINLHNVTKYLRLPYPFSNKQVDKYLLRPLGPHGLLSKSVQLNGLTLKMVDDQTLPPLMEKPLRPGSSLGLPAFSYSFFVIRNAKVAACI
T1 sequence (Q9Y251 36-109 limits assumed): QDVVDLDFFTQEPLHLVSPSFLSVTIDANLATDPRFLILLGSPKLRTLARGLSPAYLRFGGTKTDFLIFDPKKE

[4] = tested on: U87MG (human glioblastoma astrocytoma); experiment: Matrigel cell invasion assay; assay type: cell-based; conditions: Homo sapiens, U-87 MG, read-out: Invasion Assay Inhibition U87MG
Protocol: (§2) Heparanase inhibitors were then evaluated for their activity on the invasive potential of HT1080 (human fibrosarcoma), U87MG (human glioblastoma astrocytoma) and U2OS (human osteosarcoma) human cell lines, using the Matrigel cell invasion assay which allows to assess the cell invasion ability of malignant and normal cells.
(§3) Invasion assay was performed using BioCoat cell culture inserts (BioCoat 8.0µm PET Membrane 24 Well Permeable Supports, Corning). Filters were coated with 100 µl of 300 µg/ml Matrigel dissolved in coating buffer (0.01 M Tris pH 8.0, 0.7% NaCl) (Becton-Dickinson Sciences). DMEM (Dulbecco's Modified Eagle's Medium) containing 5% FBS was added to the lower chambers. Cells were pre-treated with heparanase inhibitors for 24 h, detached and added to the upper chambers in media containing the inhibitors. Cells were allowed to invade for 24 h at 37°C in a CO2 incubator and then unmigrated cells were removed from the upper chamber with a cotton swab. The invading cells were fixed, stained with 0.1% crystal violet for 10 min at room temperature, photographed and counted under inverted microscope.
(§4) Test compounds were analyzed at fixed concentration (2.5 µM) for several fields, in duplicates. Activity of test compounds was compared to the reference compound. Activity of most interesting compound was confirmed in a second cell invasion assay. Data were expressed as the percent invasion with respect to cell migration through uncoated insert membrane.
(§5) Table 3. […] In Invasion assay, data were expressed as the percent invasion (range) with respect to cell migration through uncoated insert membrane. In Adhesion assay, data were expressed as the percent of adhesion with respect to the control (100%).

[5] = tested on: U2OS (human osteosarcoma); experiment: Matrigel cell invasion assay; assay type: cell-based; conditions: Homo sapiens, read-out: Invasion Assay Inhibition U2OS
Protocol: as §2, §3, §4, §5

[6] = tested on: HT1080 (human fibrosarcoma); experiment: Matrigel cell invasion assay; assay type: cell-based; conditions: HT-1080, read-out: Invasion Assay Inhibition HT1080
Protocol: as §2, §3, §4, §5

## Cn1cc(NC(=O)c2ccc(Oc3ccc(C(=O)Nc4cc(C(=O)Nc5cccc(CC(=O)N[C@@H](Cc6ccccc6)C(=O)O)c5)n(C)c4)cc3)cc2)cc1C(=O)Nc1cccc(CC(=O)N[C@@H](Cc2ccccc2)C(=O)O)c1 [Compound 36e, (2S,2'S)-2,2'-((2,2'-(((4,4'-((4,4'-Oxybis(benzoyl))bis(azanediyl))bis(1-methyl-1H-pyrrole-2,2'-carbonyl))bis(azanediyl))bis(3,1-phenylene))bis(acetyl))bis(azanediyl))bis(3-phenylpropanoic acid)]
[1]
  EC50: > 2.5 µM
[2]
  EC50: > 2.5 µM
[3]
  EC50: > 2.5 µM
heparanase; AGA*IA screening, read-out: anti-heparanase activity
  IC50: < 500 nM
heparanase; Table 1, range activity classes, AGA*IA test on Fondaparinux, read-out: AGAIA assay IC50
  IC50: 50 to 490 nM
heparanase; Table 2, classes as in Table 1, read-out: AGA*IA assay
  IC50: 50 to 490 nM
[4]
  inhibition at 2.5 µM: 50 to 90%
[5]
  inhibition at 2.5 µM: < 50%
[6]
  inhibition at 2.5 µM: 50 to 90%
